From patent US12102633B2, “Spirolactone compounds” (Quixgen, Inc., priority 2017, dated 2024)

How the values were obtained:
[1] = molecular target: T1, human ACC2 (Homo sapiens, UniProt O00763); test: Human ACC enzymatic activity assay (ACC2); type: biochemical; conditions: purified human ACC2; read-out: EA-CoA hACC 2 IC50
T1 construct: purchased BPS Bioscience
Procedure: (§1) Human ACC enzymatic activity assays were performed by using purified human ACC1 and ACC2 proteins (BPS Bioscience). ACC1 and ACC2 proteins were diluted in 24.5 μL reaction buffer (50 mM HEPES pH 7.5, 10 mM MgCl2, 2.0 mM DTT, 4.0 mM ATP, 15 mM ^13C-NaHCO3, 0.75 mg/mL BSA, 0.5 mM sodium citrate), and final concentrations of ACC1 and ACC2 were 0.4 μg/mL and 0.48 μg/mL. For each reaction, 0.5 μL of serial diluted compounds were prepared in DMSO in duplicate or triplicate and mixed with the above 24.5 μL reaction mixtures with ACC proteins at 37° C. for 10 min. Meanwhile, 25 μL of reaction buffer plus acetyl-CoA (final concentration: 5 μM) was prepared freshly and added to the above 25 μL mixture to initiate the reaction. After incubation at 37° C. for 1-2 hours, 100 μl ice-cold 10% TCA with malonyl-^13C3-CoA (final concentration: 40 nM, Sigma-Aldrich) was added to terminate the reaction. For LC-MS/MS analysis, 300 μL quenching buffer (acetonitrile:methanol=1:1, 20 μM carbutamide as internal standard) was added to each tube and mixed well. Samples were then centrifuged at 14,000 rpm for 10 min (Eppendorf) and supernatants were loaded onto LC-MS/MS for quantitation of […] (Gao et al., Journal of chromatography B, Analytical technologies in the biomedical and life sciences 853, 303-313 (2007)).
(§2) Shimadzu LC system was used for sample analysis consisting of system controller (Shimadzu CBM-20A), autosampler (Shimadzu SIL-20A), pump A and B (Shimadzu LC-20AD), column oven (Shimadzu CTO-20A), and analytical column (Phenomenex Gemini 5u C18 11A, 100×2 mm). LC was running at 200 μL/min in the binary gradient mode with mobile phase A (5 mM Ammonium Acetate and 5 mM DMBA in water (1,3-Dimethylbutylamine)) and B (methanol). The samples were analyzed on an AB Sciex QTrap4000 LC-MS/MS triple quadrupole mass spectrometer (Applied Biosystems). Malonyl-CoA and malonyl-13C-CoA were monitored in positive ion mode following MRM transitions at 854.2/347.1 and 855.1/246.1, respectively. The product and internal standard were coeluted to the mass spectrometer in 3 s with 50% H2O, 25% MeCN, 25% acetone, and 5 mM ammonium acetate. Ion chromatograms were integrated using the Analyst 1.5.2 software. Peak area ratios were compared against a standard curve and final cellular concentration of malonyl-CoA or production rate of malonyl-13C-CoA was calculated as pmoles/mg protein per minute.

[2] = molecular target: T2, human ACC1 (Homo sapiens, UniProt Q13085); test: Human ACC enzymatic activity assay (ACC1); type: biochemical; conditions: purified human ACC1; read-out: EA-CoA hACC 1 IC50
T2 construct: purchased BPS Bioscience
Procedure: as §1, §2

[3] = test system: Human sebocytes; test: Cellular levels of malonyl-CoA in human sebocytes; type: cell-based; conditions: 0.5 h, 30 min incubation, read-out: Malonyl-CoA in Sebo IC50
Procedure: as §2
Human sebocytes (Celprogen) were grown in growth media (DMEM with 4.5 g/L glucose, 0.584 g/L L-glutamine (Sigma), 100 units/mL of penicillin and 100 μg/mL of streptomycin (Gibco), 10% fetal bovine serum (Gibco)) at 37° C. in a humidified water jacketed incubator (Forma Scientific) supplemented with 5% CO2 till 100% confluency. Cells grown in 152 cm^2 cell culture dish (Corning) were trypsinized with 0.25% trypsin-EDTA (Gibco), centrifuged at 800 rpm for 10 min (Eppendorf) and resuspended in 4 mL growth media. To 1 μL serial diluted compounds in DMSO, 99 μL cells (around 0.5 million cells suspended in growth media) were added and mixed well followed by incubation in cell culture incubator for 30 min. Cells were then centrifuged at 800 rpm for 10 min and 70 μL 10% trichloroacetic acid was added to each well to lyse the cells and precipitate proteins. Cellular levels of malonyl-CoA were quantitated by LC-MS/MS.

[4] = test system: T3, Mouse ACC (ACC protein purified from liver); test: Mouse ACC enzymatic activity assay; type: biochemical; conditions: read-out: EA-CoA mACC IC50
T3 construct: ACC protein was purified by taking advantage of the biotinylation in the carboxylase domain
Procedure: ACC protein was purified by taking advantage of the biotinylation in the carboxylase domain. Male C57BL/6J mice (Jackson Laboratory) at 8-12 weeks of age were euthanized by using CO2 inhalation method and liver was immediately frozen on dry ice. To 100 mg liver was added 1 mL ice-cold tissue lysis buffer (20 mM Tris-HCl pH 7.5, 150 mM NaCl, 1 mM Na2EDTA, 1 mM EGTA, 1% Triton, 2.5 mM sodium pyrophosphate, 1 mM 3-glycerophosphate, 1 mM Na3VO4, 1 μg/mL leupeptin, 1 tablet of protease inhibitor cocktail (Roche) per 10 mL lysis buffer) followed by homogenization on ice with Power Gen 125 homogenizer (Fisher Scientific). After 30 min incubation on ice, tissue lysate was passed through a 10 mL syringe with 18½ G needle for 10 times to shear DNA. The lysate was then subject to 17.5%-35% saturated ammonium sulfate precipitation by adding 880 mg ammonium sulfate powder (Sigma) to 10 mL liver lysate in 10 min with stirring on ice. Sample was centrifuged at 14,000 rpm (Eppendorf) at 4° C. for 10 min and supernatant was saved for further precipitation by adding 880 mg ammonium sulfate powder to 10 ml supernatant in 10 min with stirring on ice. Sample was centrifuged at 14,000 rpm at 4° C. for 10 min. Supernatant was discarded and pellet was dissolved in 10 mL sample buffer (100 mM Tris-HCl, pH 7.5, 1 mM EDTA, 0.1 mM DTT, 0.5 M NaCl, and 5% glycerol). The sample was then added with 1 mL of Strep Mag beads slurry (Genscript) and rotated at 4° C. for 1 hour. Supernatant was discarded and beads were washed with sample buffer for 3 times. Protein was then eluted by adding 10 mL of 2 mM biotin (Promega) prepared in sample buffer. The eluate was then dialyzed at 4° C. for 1 hour by using Slide-A-Lyzer™ Dialysis Cassettes 10K MWCO (Thermo Fisher Scientific) against 3 changes of 200 mL dialysis buffer (50 mM HEPES, pH 7.5, 0.1 mM DTT, 1.0 mM EDTA, and 10% glycerol). Total protein concentration was then quantitated by using BCA protein assay kit (Pierce).
For ACC enzymatic activity assay, 1 μL serial diluted compounds prepared in DMSO in duplicate were mixed with 8 μL dialyzed sample at 37° C. for 10 min. Ninety one L of reaction buffer (50 mM HEPES pH 7.5, 10 mM MgCl2, 2.0 mM DTT, 0.5 mM acetyl-CoA, 4.0 mM ATP, 15 mM ^13C-NaHCO3, 0.75 mg/mL BSA, 0.5 mM sodium citrate) was added to the tube and mixed thoroughly. After incubation at 37° C. for 1 hour, 300 μl ice-cold quenching buffer (acetonitrile:methanol=1:1, 20 μM carbutamide as internal standard) was added to each tube and mixed well to terminate the reaction. Samples were centrifuged at 14,000 rpm for 10 min (Eppendorf) and supernatant was loaded onto LC-MS/MS for quantitation of malonyl-^13C-CoA (Gao et al., Journal of chromatography B, Analytical technologies in the biomedical and life sciences 853, 303-313 (2007)).
as §2

T1 sequence (O00763 whole entry): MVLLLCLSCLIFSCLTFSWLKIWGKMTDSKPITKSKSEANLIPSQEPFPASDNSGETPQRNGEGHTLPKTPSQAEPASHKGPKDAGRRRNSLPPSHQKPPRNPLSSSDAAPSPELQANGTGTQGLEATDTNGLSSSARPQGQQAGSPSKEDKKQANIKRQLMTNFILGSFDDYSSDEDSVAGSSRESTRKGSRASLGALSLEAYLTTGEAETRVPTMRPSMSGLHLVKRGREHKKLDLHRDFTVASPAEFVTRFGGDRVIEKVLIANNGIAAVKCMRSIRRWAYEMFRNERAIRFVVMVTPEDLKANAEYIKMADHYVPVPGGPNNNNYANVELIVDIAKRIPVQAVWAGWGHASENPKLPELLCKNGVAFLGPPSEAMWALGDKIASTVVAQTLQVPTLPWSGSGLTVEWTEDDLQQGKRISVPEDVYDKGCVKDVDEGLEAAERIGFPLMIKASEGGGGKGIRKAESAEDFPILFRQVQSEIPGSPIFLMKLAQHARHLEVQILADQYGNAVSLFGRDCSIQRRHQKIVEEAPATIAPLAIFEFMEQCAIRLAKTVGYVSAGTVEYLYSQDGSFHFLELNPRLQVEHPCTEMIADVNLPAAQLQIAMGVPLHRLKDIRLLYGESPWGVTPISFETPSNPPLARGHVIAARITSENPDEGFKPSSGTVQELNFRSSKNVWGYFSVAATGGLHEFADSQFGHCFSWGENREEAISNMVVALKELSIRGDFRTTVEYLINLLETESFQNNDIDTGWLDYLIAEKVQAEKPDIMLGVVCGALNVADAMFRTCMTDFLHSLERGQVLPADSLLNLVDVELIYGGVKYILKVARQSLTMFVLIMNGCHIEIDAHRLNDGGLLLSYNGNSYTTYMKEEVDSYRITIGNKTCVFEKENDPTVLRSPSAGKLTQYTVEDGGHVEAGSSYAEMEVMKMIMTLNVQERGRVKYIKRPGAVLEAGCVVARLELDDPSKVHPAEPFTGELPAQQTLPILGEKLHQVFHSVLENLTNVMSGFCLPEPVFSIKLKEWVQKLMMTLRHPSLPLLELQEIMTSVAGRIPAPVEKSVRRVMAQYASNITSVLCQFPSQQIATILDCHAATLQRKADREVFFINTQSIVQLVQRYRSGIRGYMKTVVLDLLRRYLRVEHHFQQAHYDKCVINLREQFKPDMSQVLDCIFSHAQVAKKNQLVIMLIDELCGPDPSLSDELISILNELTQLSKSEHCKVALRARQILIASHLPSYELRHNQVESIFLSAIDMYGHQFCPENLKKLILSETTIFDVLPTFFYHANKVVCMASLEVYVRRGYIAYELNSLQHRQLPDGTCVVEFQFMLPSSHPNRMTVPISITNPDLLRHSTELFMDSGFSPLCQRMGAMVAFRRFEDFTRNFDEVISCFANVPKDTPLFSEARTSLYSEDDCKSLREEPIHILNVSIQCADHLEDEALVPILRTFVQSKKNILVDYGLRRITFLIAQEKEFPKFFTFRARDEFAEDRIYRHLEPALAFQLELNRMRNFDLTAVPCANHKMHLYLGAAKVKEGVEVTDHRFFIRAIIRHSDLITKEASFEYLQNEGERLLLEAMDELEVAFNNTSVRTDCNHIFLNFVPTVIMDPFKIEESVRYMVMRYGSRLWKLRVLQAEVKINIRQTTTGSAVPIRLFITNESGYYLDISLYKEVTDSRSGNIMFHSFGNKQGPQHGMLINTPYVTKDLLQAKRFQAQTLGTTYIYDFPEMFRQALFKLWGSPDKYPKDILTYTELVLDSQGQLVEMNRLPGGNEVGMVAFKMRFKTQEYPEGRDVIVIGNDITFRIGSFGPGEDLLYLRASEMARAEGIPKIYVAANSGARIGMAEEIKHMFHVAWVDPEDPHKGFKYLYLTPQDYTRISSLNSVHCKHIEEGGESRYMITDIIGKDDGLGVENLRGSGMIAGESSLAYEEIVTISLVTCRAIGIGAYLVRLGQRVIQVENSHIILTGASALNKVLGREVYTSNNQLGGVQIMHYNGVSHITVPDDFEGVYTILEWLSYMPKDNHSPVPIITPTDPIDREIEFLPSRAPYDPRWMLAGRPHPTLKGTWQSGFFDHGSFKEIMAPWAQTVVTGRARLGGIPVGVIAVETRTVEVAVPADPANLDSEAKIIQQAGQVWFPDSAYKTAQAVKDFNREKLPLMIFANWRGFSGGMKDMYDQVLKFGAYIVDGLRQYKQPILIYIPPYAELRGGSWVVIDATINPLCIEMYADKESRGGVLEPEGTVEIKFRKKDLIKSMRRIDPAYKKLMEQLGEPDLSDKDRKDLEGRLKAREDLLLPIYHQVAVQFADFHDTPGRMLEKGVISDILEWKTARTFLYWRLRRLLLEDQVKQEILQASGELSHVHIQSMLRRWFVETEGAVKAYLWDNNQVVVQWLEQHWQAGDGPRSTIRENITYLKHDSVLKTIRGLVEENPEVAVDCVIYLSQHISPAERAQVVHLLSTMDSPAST

COC(=O)c1cncc(-c2ccc3c(c2)C(=O)OC2(CCN(C(=O)c4cc(OC)c5cccc(C6CC6)c5n4)CC2)C3)c1 [Example 19, methyl 5-(1′-(8-cyclopropyl-4-methoxyquinoline-2-carbonyl)-1-oxospiro[isochroman-3,4′-piperidin]-7-yl)nicotinate]
IC50 [1]: 740 nM | IC50 [2]: 1120 nM

COC(=O)c1cncc(-c2ccc3c(c2)C(=O)OC2(CCN(C(=O)c4cc(OC)c5c(C)cn(C6CC6)c5c4)CC2)C3)c1 [Example 21, methyl 5-(1′-(1-cyclopropyl-4-methoxy-3-methyl-1H-indole-6-carbonyl)-1-oxospiro[isochroman-3,4′-piperidin]-7-yl)nicotinate]
IC50 [1]: 221 nM | IC50 [2]: 296 nM

CC(C)c1ccc2c(c1)C(=O)OC1(CCN(C(=O)c3ccc4[nH]ncc4c3)CC1)C2 [Example 8, 1′-(1H-indazole-5-carbonyl)-7-isopropylspiro[isochroman-3,4′-piperidin]-1-one]
IC50 [3]: 442 nM

Cc1nc2ccc(C(=O)N3CCC4(CC3)Cc3ccc(C(C)C)cc3C(=O)O4)cc2[nH]1 [Example 7, 7-isopropyl-1′-(2-methyl-1H-benzo[d]imidazole-6-carbonyl)spiro[isochroman-3,4′-piperidin]-1-one]
IC50 [3]: 6150 nM

CCc1nc2ccc(C(=O)N3CCC4(CC3)Cc3ccc(C(C)C)cc3C(=O)O4)cc2[nH]1 [Example 12, 1′-(2-ethyl-1H-benzo[d]imidazole-6-carbonyl)-7-isopropylspiro[isochroman-3,4′-piperidin]-1-one]
IC50 [3]: 3490 nM

CC(C)c1ccc2c(c1)C(=O)OC1(CCN(C(=O)c3ccc4[nH]c(=O)n(C)c4c3)CC1)C2 [Example 13, 7-isopropyl-1′-(3-methyl-2-oxo-2,3-dihydro-1H-benzo [d]imidazole-5-carbonyl)spiro[isochroman-3,4′-piperidin]-1-one]
IC50 [3]: 2440 nM

CC(C)c1ccc2c(c1)C(=O)OC1(CCN(C(=O)c3cc4ncccc4[nH]3)CC1)C2 [Example 9, 7-isopropyl-1′-(1H-pyrrolo[3,2-b]pyridine-2-carbonyl)-spiro[isochroman-3,4′-piperidin]-1-one]
IC50 [3]: 714 nM

COc1cc(C(=O)N2CCC3(CC2)Cc2ccc(Nc4ccnn4C)cc2C(=O)O3)cc2c(OC)cccc12 [Example 5, 1′-(4,8-dimethoxy-2-naphthoyl)-7-((1-methyl-1H-pyrazol-5-yl)amino)spiro[isochroman-3,4′-piperidin]-1-one]
IC50 [4]: 0.37 nM

COc1cc(C(=O)N2CCC3(CC2)Cc2ccc(-c4cncc(C(=O)O)c4)cc2C(=O)O3)cc2c1c(C)cn2C1CC1 [Example 22, 5-(1′-(1-cyclopropyl-4-methoxy-3-methyl-1H-indole-6-carbonyl)-1-oxospiro[isochroman-3,4′-piperidin]-7-yl)nicotinic acid]
IC50 [1]: 11.1 nM | IC50 [2]: 23.9 nM

CC(C)c1ccc2c(c1)C(=O)OC1(CCN(C(=O)c3ccc4cn[nH]c4c3)CC1)C2 [Example 10, 1′-(1H-indazole-6-carbonyl)-7-isopropylspiro-[isochroman-3,4′-piperidin]-1-one]
IC50 [3]: 676 nM

COc1ccc2ncc(C(=O)N3CCC4(CC3)Cc3ccc(C(C)C)cc3C(=O)O4)cc2c1 [Example 11, 7-isopropyl-1′-(6-methoxyquinoline-3-carbonyl)spiro [isochroman-3,4′-piperidin]-1-one]
IC50 [3]: 142 nM
